Reference: patent publication USRE30456E, “2-Substituted phenyl-s-triazolo[5,1-a] isoquinoline compounds” (Gruppo Lepetit S.p.A., priority 1973, dated 1980)

Tested on: carrageenin induced edema
Test: carrageenin test in rats (anti-inflammatory activity)
Type: in vivo
Description: The anti-inflammatory activity of some inventive compounds was evidenced by means of the carrageenin test in rats.

Compound | inhibition of the carrageenin induced edema (50 mg./kg. p.o.) | inhibition of the carrageenin induced edema (100 mg./kg. p.o.)
Sc1nc2n(n1)CCc1ccccc1-2 [Example 38, 2-Sulfhydryl-5,6-dihydro-s-triazolo[5,1-a]isoquinoline] | about 35% | 
NC(=O)Nc1nc2n(n1)CCc1ccccc1-2 [Example 54, 2-Ureido-5,6-dihydro-s-triazolo[5,1-a]isoquinoline] |  | about 35%
